Values quoted from earlier work as cited in US20090137633A1, “Stable pharmaceutical composition of rabeprazole” (priority 2003, published 2009).
Where a name gives a salt, the structure may show the parent alone.

Columns and labels:
[1] = target: T1, gastric H^+ K^+ ATPase enzyme system (proton pump) (Homo sapiens, UniProt P20648); conditions: in vivo
T1 construct: at the secretory surface of the gastric parietal cell; host or cells: gastric parietal cell (in vivo)
T1 sequence (P20648 whole entry): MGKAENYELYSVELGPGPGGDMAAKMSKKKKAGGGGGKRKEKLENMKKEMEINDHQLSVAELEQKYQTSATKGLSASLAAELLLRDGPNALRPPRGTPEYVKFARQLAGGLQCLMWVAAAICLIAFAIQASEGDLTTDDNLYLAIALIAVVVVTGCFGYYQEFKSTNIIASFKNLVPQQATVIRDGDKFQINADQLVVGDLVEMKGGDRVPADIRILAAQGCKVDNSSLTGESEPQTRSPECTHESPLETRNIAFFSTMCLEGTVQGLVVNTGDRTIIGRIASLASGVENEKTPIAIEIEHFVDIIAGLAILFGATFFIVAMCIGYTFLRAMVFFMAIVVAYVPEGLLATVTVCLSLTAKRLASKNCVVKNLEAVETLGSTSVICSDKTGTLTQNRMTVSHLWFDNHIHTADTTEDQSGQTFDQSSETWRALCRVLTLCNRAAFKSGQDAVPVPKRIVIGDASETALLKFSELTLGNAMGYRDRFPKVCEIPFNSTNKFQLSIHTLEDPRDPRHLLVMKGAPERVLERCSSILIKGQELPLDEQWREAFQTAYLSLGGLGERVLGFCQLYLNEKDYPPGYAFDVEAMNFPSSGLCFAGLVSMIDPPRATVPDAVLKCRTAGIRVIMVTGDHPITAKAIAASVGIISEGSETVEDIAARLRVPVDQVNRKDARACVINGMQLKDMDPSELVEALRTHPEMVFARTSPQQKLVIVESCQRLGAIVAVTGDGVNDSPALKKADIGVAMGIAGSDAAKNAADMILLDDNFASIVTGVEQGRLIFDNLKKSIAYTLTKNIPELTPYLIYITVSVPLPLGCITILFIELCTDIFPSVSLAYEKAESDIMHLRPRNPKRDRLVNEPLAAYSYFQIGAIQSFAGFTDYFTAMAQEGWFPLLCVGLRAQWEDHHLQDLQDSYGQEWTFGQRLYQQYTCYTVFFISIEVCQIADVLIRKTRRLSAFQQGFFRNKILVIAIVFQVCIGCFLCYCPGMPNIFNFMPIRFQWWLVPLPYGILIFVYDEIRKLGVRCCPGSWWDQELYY
T1 sequence (P51164 whole entry partner): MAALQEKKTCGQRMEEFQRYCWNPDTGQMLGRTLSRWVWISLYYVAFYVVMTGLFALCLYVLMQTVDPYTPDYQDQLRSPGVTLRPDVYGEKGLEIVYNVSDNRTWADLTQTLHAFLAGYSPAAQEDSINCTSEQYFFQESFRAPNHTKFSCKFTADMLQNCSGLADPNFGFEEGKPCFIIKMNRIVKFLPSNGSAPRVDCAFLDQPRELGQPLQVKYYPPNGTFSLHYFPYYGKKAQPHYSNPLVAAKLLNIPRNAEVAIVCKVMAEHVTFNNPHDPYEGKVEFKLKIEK

effect on intragastric pH in relation to cytochrome P450 2C19 genotype [1]: unaffected
oral bioavalability: about 50%
SMILES: COCCCOc1ccnc(C[S+]([O-])c2nc3ccccc3[nH]2)c1C (centres unmarked) [rabeprazole, 2-{[[4-(3-methoxypropoxy)-3-methyl]-2-pyridinyl]sulfinyl}-1H-benzimidazole sodium salt]
